From patent US20260123631A1, “NATURAL PORPHIN SALT AND USE THEREOF AS PLANT GROWTH REGULATOR AND PLANT IMMUNITY INDUCER” (NANJING BOSTEC BIOLOGICAL ENGINEERING CO., LTD, priority 2022, published 2026)

Key:
[1] = tested on: mung bean seedlings; assay: Inducing adventitious roots from hypocotyls of mung bean; type: in vivo; conditions: day 7
Procedure: Test solution preparation: 8 mL of a commercially-available STANLEY universal hydroponic nutrient solution was taken and diluted with tap water to 3,200 mL (400-fold dilution) to produce a dilute nutrient solution. An appropriate amount of each of salt samples such as protoporphyrin disodium and potassium chlorhematin was weighed and prepared with the dilute nutrient solution into 0.010 ppm and 0.1 ppm sample test solutions, and 150 mL of each test solution was taken. 150 mL of the dilute nutrient solution was taken as a blank control. The test solutions and the control solution were placed in brown bottles, and the brown bottles were sealed with a black film. Mung bean seedlings with uniform growth and a seedling height of 7 cm to 8 cm were selected, and cut at 3 cm below a first true leaf node. 8 mung bean seedlings were inserted into each bottle (with roots removed) to make lower radicles soaked in a solution. Mung bean seedlings were treated at room temperature of 20° C. to 25° C. for 7 d in total, during which the solution was changed every 2 d. On day 2 to day 3 of the treatment, there was a significant difference. On day 7, the observation and determination were conducted. An average adventitious root number and an average total adventitious root length for each seedling were calculated, and results were shown in the following table: […]

[2] = tested on: pepper; assay: Spraying on pepper to increase a yield; type: in vivo, pepper (Hebei Jize pepper); conditions: for Average fruit number / Single-fruit weight / Yield per mu: 1.5 mg/mu sprayed twice (0.1 ppm and 0.05 ppm); for Yield increase rate: 1.5 mg/mu sprayed twice, versus clear water
Procedure: Experimental method: A land area of 10 mu was adopted for each of experimental and control groups. A treatment group was sprayed with a potassium hematin solution, a control group was sprayed with heme (at the same dose concentration as the treatment group), and a blank was sprayed with clear water. On May 19 (after transplanting) and July 2 (blooming stage), an agent was sprayed at 1.5 mg/mu in the treatment and control groups, with water amounts per mu respectively as follows: 15 L and 30 L (sample concentrations: 0.1 ppm and 0.05 ppm). On September 13, 10 pepper plants with uniform growth were selected from each of the treatment group and the control group, and fruit numbers and single-fruit weights were counted. The whole field was harvested in three batches on August 30, September 13, and September 25, respectively. Yields were subjected to combined statistics and comparison, and results were as follows: […]

[3] = Water solubility of the prepared salts; type: physicochemical
[4] = tested on: wheat; assay: Germination of wheat and growth of seedlings; type: in vivo, wheat (Huaimai 35); conditions: for Root length / Root number / Root weight / Seedling height / Seedling weight: wheat seedlings
Procedure: Method: 3 replicates were set for each treatment. 50 full seeds with a consistent size were selected each time for each sample, disinfected with sodium hypochlorite for 5 min, rinsed with clear water, and placed in a plastic box filled with 100 g of a sand. 25 mL of a prepared sample solution was poured into the plastic box, and the seeds were arranged regularly. The plastic box was covered with a lid, and then incubated in a 25° C. incubator. The germination was determined when a length of a sprout of a wheat seed exceeded a half of a diameter (long axis) of the wheat seed (determination criterion). According to the growth of wheat, the germ exposure of seeds and the number of germinated seeds were recorded every day. On day 6, 10 wheat seedlings were randomly selected, and a root length, a plant height, and a root number were determined. On day 7, a root weight and an aboveground part weight were determined. All index data was produced based on 3 replicates.

[5] = Stability of sample solutions in the dark/under light; type: physicochemical
How it was run: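 Salt in water, or acidic reference in 30–50% aqueous ethanol, at about 10 ppm; UV absorbance scanned 200–800 nm at 0, 1, 2, 3 h, stored at 25° C dark or under 30,000 lux light. Relative content = max-peak absorbance at each time divided by 0 h value (100%).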

[6] = Dilution and pH determination for sample solutions; type: physicochemical
Procedure: Method: 0.2500 g of a sample was accurately weighed and added to a 25 mL volumetric flask, dissolved with purified water, and diluted to a specified scale to prepare a 1.00% (10,000.0 ppm) initial solution. The initial solution was diluted with purified water in different ratios to prepare a series of solutions with a concentration of 1,000.0 ppm to 0.1 ppm. A pH value of each sample was determined three times.

[7] = under light 30,000 lux, 1 h, salts in water, acidic reference in 30% to 50% ethanol
[8] = under light 30,000 lux, 2 h, salts in water, acidic reference in 30% to 50% ethanol
[9] = under light 30,000 lux, 3 h, salts in water, acidic reference in 30% to 50% ethanol

In the case of `C=CC1=C(C)c2cc3[n-]c(cc4nc(cc5[n-]c(cc1n2)c(C)c5C=C)C(C)=C4CCC(=O)[O-])c(CCC(=O)[O-])c3C.[Cl-].[Fe+3].[K+].[K+]` [Example 10, potassium chlorhematin], the Adventitious root number ([1]; 0.01 ppm) is reported as 14.85 root/seedling, the “Total adventitious root length” value ([1]; 0.01 ppm) is reported as 26.83 cm/seedling and the Adventitious root number ([1]; 0.1 ppm) is reported as 14.02 root/seedling. The “Total adventitious root length” value ([1]; 0.1 ppm) was 25.21 cm/seedling, the Average fruit number [2] was 50.5 fruits/plant and the Single-fruit weight [2] was 18.5 g/fruit. For the same compound, the Yield per mu [2] was 2975.0 kg/mu, the Yield increase rate [2] was 10.59% and the solubility in water [3] was “easily soluble”. For the same compound, the “Germination rate of wheat” value ([4]; 0.0025 ppm) was 94.0%, the Root length ([4]; 0.0025 ppm) was 10.01 cm and the Root number ([4]; 0.0025 ppm) was 5.1. It also gave a Root weight ([4]; 0.0025 ppm) of 0.1163 g, a Seedling height ([4]; 0.0025 ppm) of 9.42 cm and a Seedling weight ([4]; 0.0025 ppm) of 0.298 g. The “Germination rate of wheat” value ([4]; 0.0250 ppm) was 94.7%, the Root length ([4]; 0.0250 ppm) was 9.74 cm and the Root number ([4]; 0.0250 ppm) was 5.2. For the same compound, the Root weight ([4]; 0.0250 ppm) was 0.1143 g, the Seedling height ([4]; 0.0250 ppm) was 9.56 cm and the Seedling weight ([4]; 0.0250 ppm) was 0.286 g. The “Germination rate of wheat” value ([4]; 0.2500 ppm) was 97.3%, the Root length ([4]; 0.2500 ppm) was 9.15 cm and the Root number ([4]; 0.2500 ppm) was 5.3. The Root weight ([4]; 0.2500 ppm) was 0.1036 g, the Seedling height ([4]; 0.2500 ppm) was 7.51 cm and the Seedling weight ([4]; 0.2500 ppm) was 0.211 g. The Relative content [5, 7] was 90.91%, the Relative content [5, 8] was 90.08% and the Relative content [5, 9] was 81.82%. For the same compound, the pH ([6]; 0.1 ppm in purified water) was “(6.85)”, the pH ([6]; 1.0 ppm in purified water) was “(6.90)” and the pH ([6]; 10.0 ppm in purified water) was “(7.33)”. For the same compound, the pH ([6]; 20.0 ppm in purified water) was “(7.45)”, the pH ([6]; 30.0 ppm in purified water) was “(7.57)” and the pH ([6]; 100.0 ppm in purified water) was “(8.10)”. For the same compound, the pH ([6]; 1000.0 ppm in purified water) was “(9.43)” and the pH ([6]; 10000.0 ppm in purified water) was “(10.21)”.
With `C=CC1=C(C)c2cc3[n-]c(cc4[n-]c(cc5nc(cc1n2)C(C)=C5C=C)c(C)c4CCC(=O)O)c(CCC(=O)O)c3C.[Cl-].[Fe+3]` [Chlorhematin, chlorhematin, reference compound] the Adventitious root number ([1]; 0.01 ppm) was 11.07 root/seedling, the “Total adventitious root length” value ([1]; 0.01 ppm) was 18.03 cm/seedling and the Adventitious root number ([1]; 0.1 ppm) was 10.33 root/seedling. For the same compound, the “Total adventitious root length” value ([1]; 0.1 ppm) was 18.28 cm/seedling, the Average fruit number [2] was 49.2 fruits/plant and the Single-fruit weight [2] was 18.6 g/fruit. The Yield per mu [2] was 2833.3 kg/mu, the Yield increase rate [2] was 5.33% and the Relative content ([5]; in the dark, 25° C., 0 h) was 100.00%. For the same compound, the Relative content ([5]; in the dark, 25° C., 1 h) was 99.55%, the Relative content ([5]; in the dark, 25° C., 2 h) was 99.24% and the Relative content ([5]; in the dark, 25° C., 3 h) was 98.65%. The Relative content ([5]; under light 30,000 lux, 0 h) was 100.00%, the Relative content [5, 7] was 27.73% and the Relative content ([5]; under light 30,000 lux, 1 h, salts in water, acidic reference in 30% to 50% ethanol, listed as chlorhematin) was “less than 30%”. For the same compound, the Relative content [5, 8] was 21.64% and the Relative content [5, 9] was 20.21%.
